Measured values: US20240173346A1, “LINE-1 INHIBITORS TO TREAT CNS AND SYSTEMIC DISEASES” (TRANSPOSON THERAPEUTICS, INC., priority 2021, published 2024)
Structures can show the parent of a compound that is named as a salt. Where two headings read alike, the source gives them in different places.

System: human LINE-1
Assay: Human LINE-1 retrotransposition assay (HeLa cell-based dual-luciferase reporter, plasmid pYX017)
Conditions: HeLa cells; for IC50: 72 h incubation
Protocol: Islatravir and other compounds were tested for inhibition of retrotransposition activity of human LINE-1 in HeLa cells according to the following procedure.
HeLa cervical cancer cells were cultivated at 37° C. in a humidified 5% CO2 incubator in Dulbecco's Modified Eagle's Medium (DMEM)—high glucose, with 4500 mg/L glucose, L-glutamine, sodium pyruvate and sodium bicarbonate (Sigma), supplemented with 10% of heat inactivated fetal bovine serum (Thermo Fisher).
Assays were performed using reporter plasmid pYX017 as described (Xie, et al., 2011) with several modifications. The reporter assay was performed in 96-well white optical bottom plates. HeLa cells were seeded in wells 24 h prior to transfection and compound treatment so that cells were approximately 30% confluent on the day of transfection. Different cell plating densities were tested and a density of 2×10^3 cells was determined to be optimal.
Compounds were resuspended in DMSO. Serial dilutions (1:3) were prepared in DMSO. Medium containing different concentrations of the compounds were prepared by adding 2 μl of the compound dilution to 1 ml of the culture medium. The final concentration of DMSO in the medium was 0.2%.
FuGENE® HD transfection reagent (Promega, E2311, Lot 382574 and Lot 397842) was used to transfect the plasmids into the cells. The transfection reagent: DNA mixture was prepared in OpiMEM (Thermo Fisher) according to manufacturer's instructions. Different ratios of transfection reagent to DNA were tested and a ratio of 3:1 was determined to be optimal. Culture medium was removed from the cells and discarded. The transfection reagent: DNA mixture (5 μl) was mixed with the compound containing medium (100 μl/well) and this was added onto the cells of each well. Cells were incubated at 37° C./5% CO2 for different incubation time. A 72 h incubation time was determined to be optimal.
Luciferase reporter activity was quantified with the Dual-Luciferase® Reporter Assay System (Promega) according to manufacturer's instructions for multiwell plates except that cells were lysed directly on the multiwell plate with 30 μl of the passive lysis buffer (PLB) for 20 min at room temperature, with gentle shaking to ensure complete cell lysis.
Firefly and Renilla luciferase signals were measured using a SpectraMax i3x Multi-Mode Microplate Reader. Integration times of 100 ms and 10 ms were used to measure the Firefly and Renilla signals respectively. Relative L1 activity is calculated as Firefly/Renilla *1000 or Firefly/Renilla *10,000. Dose response inhibition data were fit to a four parameter logistic equation using non-linear regression (using Graphpad Prism 8), to determine IC50 values for each inhibitor.

[1] = Homo sapiens, Firefly/Renilla luciferase, experiment 3, read-out: Human LINE-1 IC50, Exp. 3
[2] = Homo sapiens, Firefly/Renilla luciferase, experiment 4, read-out: Human LINE-1 IC50, Exp. 4
[3] = Homo sapiens, average of n = 2-4 experiments, read-out: Human LINE-1 IC50, Average
[4] = Homo sapiens, Firefly/Renilla luciferase, experiment 2, read-out: Human LINE-1 IC50, Exp. 2
[5] = Homo sapiens, Firefly/Renilla luciferase, experiment 1, read-out: Human LINE-1 IC50, Exp. 1
[6] = Homo sapiens, compounds of Table 1 (Table 4), read-out: Human LINE-1 IC50

Row | IC50 [1] | IC50 [2] | Compound | further results
1 | 16800 nM | 17400 nM | Nc1nc(NC2CC2)c2ncn([C@H]3C=C[C@@H](CO)C3)c2n1 [Abacavir sulfate] | –
2 | 7690 nM | 5220 nM | Nc1ccn([C@H]2CO[C@@H](CO)S2)c(=O)n1 [Apricitabine] | IC50 [3]: 6460 nM
3 | 80 nM | – | C#C[C@@]1(CO)C=C[C@H](n2cc(C)c(=O)[nH]c2=O)O1 [Censavudine, 4′-ethynylstavudine] | human LINE-1 inhibitor activity compared to the other reverse transcriptase inhibitory drugs tested (comparison in words): unexpectedly better human LINE-1 inhibitor activity; IC50 [4]: 90 nM; IC50 [3]: 70 nM
4 | 80 nM | 110 nM | Nc1nc(=O)n([C@@H]2C=C[C@H](CO)O2)cc1F [Elvucitabine] | IC50 [5]: 90 nM; IC50 [3]: 90 nM
5 | 1390 nM | 1300 nM | Nc1nc(=O)n([C@@H]2CS[C@H](CO)O2)cc1F [Emtricitabine] | –
6 | – | – | C#C[C@]1(CO)O[C@@H](n2cnc3c(N)nc(F)nc32)C[C@@H]1O [Islatravir, 2′-deoxy-4′-ethynyl-2-fluoroadenosine] | IC50 [3]: 1.3 nM
7 | 570 nM | 340 nM | Nc1ccn([C@@H]2CS[C@H](CO)O2)c(=O)n1 [Lamivudine] | IC50 [5]: 790 nM; IC50 [4]: 870 nM
8 | 780 nM | 710 nM | Cc1cn([C@H]2C=C[C@@H](CO)O2)c(=O)[nH]c1=O [Stavudine] | –
9 | 140 nM | 260 nM | CC(C)OC(=O)OCOP(=O)(CO[C@H](C)Cn1cnc2c(N)ncnc21)OCOC(=O)OC(C)C [Tenofovir disoproxil] | –
10 | – | – | C[C@H](Cn1cnc2c(N)ncnc21)OCP(=O)(O)O [Tenofovir] | IC50 (Firefly/Renilla luciferase, experiment 3, read-out: Human LINE-1 IC50, Exp. 3): 3310 nM; IC50 (Firefly/Renilla luciferase, experiment 4, read-out: Human LINE-1 IC50, Exp. 4): 2230 nM
11 | – | – | C#C[C@]1(CO)O[C@@H](n2cc(C)c(N)nc2=O)C[C@@H]1O [compound 6] | IC50 [6]: 18600 nM
12 | – | – | C=C[C@]1(CO)O[C@@H](n2ccc(N)nc2=O)C[C@@H]1O [compound 18] | IC50 [6]: 8 nM
13 | – | – | CC[C@]1(CO)O[C@@H](n2cc(C)c(=O)[nH]c2=O)C[C@@H]1O [compound 19] | IC50 [6]: 2000 nM
14 | – | – | CC[C@]1(CO)O[C@@H](n2cnc3c(O)nc(N)nc32)C[C@@H]1O [compound 20] | IC50 [6]: 3 nM
